How the values were obtained:
Format in all cases: in vivo, human
[1] = Heart rate during a cycling bout under hypoxic conditions; details: n=7 subjects
Experimental: Seven healthy, moderately to highly conditioned subjects volunteered to participate in this randomized, blinded, crossover trial. All subjects were between the ages of 23 and 41 years of age, and each subject cycled in two distinct trial arms, a ribose phase and a control phase. One week separated each trial arm. Subjects ingested either 7 grams of ribose in 250 mL of water or just plain water, five minutes prior to the start of exercise and again within five minutes following exercise. The scheduled exercise was 25 minutes of cycling at a workload relating to the lactic acid threshold. Subjects inhaled a hypoxic gas mixture of 16% oxygen and 84% nitrogen through a one-way breathing valve during the exercise bout. Following the cycling exercise, subjects sat quietly for 60 minutes and breathed room air during the recovery phase. All tests were conducted at room temperature. The cardiovascular parameters of heart rate and oxygen pulse saturation (SpO2) were collected at 9 minutes, 17 minutes, and 25 minutes of exercise. Oxygen pulse saturation was collected with a Nonin pulse oximeter (Nonin Medical Inc., Plymouth, Minn.). […] The 4.8% vs. 7.5% represents heart rates of 175 beats per minute (bpm) and 181 bpm for ribose and placebo (n=7 subjects).

[2] = Reduced plasma glutathione (GSH) after a single cycling bout under hypoxic conditions; details: 7 grams ribose before and after exercise; n=7 subjects; p=0.000
Experimental: (§1) Seven healthy, moderately to highly conditioned subjects volunteered to participate in this randomized, blinded, crossover trial. All subjects were between the ages of 23 and 41 years of age, and each subject cycled in two distinct trial arms, a ribose phase and a control phase. One week separated each trial arm. Subjects ingested either 7 grams of ribose in 250 mL of water or just plain water, five minutes prior to the start of exercise and again within five minutes following exercise. The scheduled exercise was 25 minutes of cycling at a workload relating to the lactic acid threshold. Subjects inhaled a hypoxic gas mixture of 16% oxygen and 84% nitrogen through a one-way breathing valve during the exercise bout. Following the cycling exercise, subjects sat quietly for 60 minutes and breathed room air during the recovery phase. All tests were conducted at room temperature. […] A whole blood sample was analyzed for hemoglobin. […] Each frozen plasma sample was analyzed for total protein and uric acid levels. Plasma samples were also analyzed for reduced glutathione levels (GSH kit, Oxis Research, Portland, Oreg.) and volumes were corrected for potential fluid loss by measuring total protein values. The frozen urine samples were analyzed for MDA (MDA kit, Oxis Research, Portland, Oreg.). […]

[3] = Urinary MDA after a single cycling bout under hypoxic conditions (16% oxygen), crossover trial; details: 7 grams ribose in 250 mL water before and after exercise; compared to the placebo; n=7 subjects; p=0.01
Experimental: as §1

[4] = Subjective ranking of exercise and recovery by blinded subjects
Experimental: Seven healthy, moderately to highly conditioned subjects volunteered to participate in this randomized, blinded, crossover trial. All subjects were between the ages of 23 and 41 years of age, and each subject cycled in two distinct trial arms, a ribose phase and a control phase. One week separated each trial arm. Subjects ingested either 7 grams of ribose in 250 mL of water or just plain water, five minutes prior to the start of exercise and again within five minutes following exercise. The scheduled exercise was 25 minutes of cycling at a workload relating to the lactic acid threshold. Subjects inhaled a hypoxic gas mixture of 16% oxygen and 84% nitrogen through a one-way breathing valve during the exercise bout. Following the cycling exercise, subjects sat quietly for 60 minutes and breathed room air during the recovery phase. All tests were conducted at room temperature. […] During the control trial, subjects expressed strong desires to take a nap during the recovery period. Additionally, four of the subjects reported that after leaving the laboratory, they went home and took long (>2 hours) naps.

O=C[C@H](O)[C@H](O)[C@H](O)CO [ribose, D-ribose]
Heart rate ([1]; during hypoxic exercise, placebo 181 bpm): 175 bpm | Percent change in heart rate during exercise (in words) ([1]; ribose supplementation vs placebo, p=0.03): significantly less | Percent change in heart rate during exercise ([1]; ribose supplementation, placebo 7.5%): 4.8% | Percent change in plasma GSH [2]: significantly lower | Percent change in urine MDA [3]: significantly lower | Blinded subjects who ranked the exercise easier and felt they had a faster recovery period ([4]; after cycling when they ingested ribose): 6 out of 7 | Comments and symptoms observed during recovery ([4]; recovery after hypoxic cycling when ribose was ingested): decreased lethargy
